Key:
Male Wistar rats [1] = experiment: Acute activity after single p.o. administration, paw withdrawal test (Randall and Selitto), % of analgesia; assay type: in vivo, rat; settings: single separate administration p.o., magnesium salts 15 mg magnesium ions/kg
Male Wistar rats [2] = experiment: Prolonged activity on repeated daily p.o. administration (7 or 10 days), paw withdrawal test (Randall and Selitto); assay type: in vivo, rat; settings: separate administration p.o., magnesium lactate micronized 15 or normal 30 mg magnesium ions/kg

Compound	analgesic activity on separate administration (oxycodone study) (Male Wistar rats [1]; oxycodone 5 mg/kg)	analgesic activity on separate administration, 7 days (oxycodone study) (Male Wistar rats [2]; oxycodone 5 mg/kg)	analgesic activity on separate administration (tramadol study) (Male Wistar rats [1]; tramadol 125 mg/kg)	pain threshold on separate administration, 10 days (tramadol study) (Male Wistar rats [2]; tramadol 125 mg/kg)
COc1ccc2c3c1O[C@H]1C(=O)CC[C@@]4(O)[C@@H](C2)N(C)CC[C@]314 [oxycodone, reference compound]	showed no analgesic activity	did not exhibit analgesic activity	–	–
COc1cccc(C2(O)CCCCC2CN(C)C)c1 (stereo not shown) [tramadol, reference compound]	–	–	did not exhibit analgesic activity	insignificantly intensified the threshold for mechanical nociceptive stimuli from days 6 to 10

From patent US9101577B2, “Analgesic pharmaceutical composition for oral administration” (Warszawski Uniwersytet Medyczny, priority 2011, dated 2015)
